Measurements taken from patent publication US20250270173A1, “PYRIDINE DERIVATIVES FOR TREATING PSYCHIATRIC DISORDERS” (GILGAMESH PHARMACEUTICALS, INC., priority 2022, published 2025).
Several values for one entry are separate records, joined by “and”; a condition that tells them apart may be missing. Identical values can stand only once. Like-named read-outs stand apart in the source and are kept apart here.

Legend:
5-HT2A receptor [1] = target: T1, 5-HT2A receptor (Homo sapiens (Human), UniProt P28223); assay: FLIPR Ca2+ flux functional assay at 5-HT2A (HEK293); conditions: for 5-HT2A % Act @ Max Conc.: HEK293, at max concentration
5-HT2B receptor = 5-HT2B receptor (Homo sapiens (Human), UniProt P41595); assay: FLIPR Ca2+ flux functional assay at 5-HT2B (HEK293); conditions: for 5-HT2B % Act @ Max Conc.: HEK293, at max concentration
5-HT1A receptor = 5-HT1A receptor (Homo sapiens (Human), UniProt P08908); assay: FLIPR Ca2+ flux functional assay at 5-HT1A (CHO cells); conditions: for 5-HT1A % Act @ Max Conc.: at max concentration
5-HT2A receptor [2] = target: T1, 5-HT2A receptor; assay: 5-HT2A receptor radioligand binding with [3H]ketanserin; conditions: read-out: Ki at 5-HT2A Receptor (nM) ([3H]ketanserin); HEK293 stable cell line, 1 nM [3H]ketanserin, 1 h, 25 °C
human 5-HT2C receptor = human 5-HT2C receptor (Homo sapiens (Human), UniProt P28335); assay: FLIPR Ca2+ flux functional assay at 5-HT2C (Eurofins DiscoverX); format: cell-based; conditions: for 5-HT2C % Act @ Max Conc.: Ca2+ flux, human 5-HT2C, at max concentration
Protocol: Functional Assays at 5-HT2C Receptors. […] Probenecid was prepared fresh. Cells were loaded with dye prior to testing and incubated at 37° C. for 30-60 minutes. After dye loading, cells were removed from the incubator and 10 μL HBSS/20 mM Hepes was added. 3× vehicle was included in the assay buffer. Cells were incubated for 30 mins at room temperature in the dark to equilibrate plate temperature. Intermediate dilution of sample stocks was performed to generate 4× sample in assay buffer. Compound agonist activity was measured on a FLIPR Tetra (MDS). Calcium mobilization was monitored for 2 minutes and 10 μL 4× sample in HBSS/20 mM Hepes was added to the cells 5 seconds into the assay.

C57BL/6 mice = assay: Automated (video tracking) head twitch response (HTR) assay in mice; format: in vivo; conditions: SC; for ED50: Mus musculus, 20 min, 20 min recording, read-out: ED50; for Most Efficacious Dose; mg/kg: dose giving the most HTR
Protocol: Disclosed compounds were tested for their ability to induce a head twitch response (HTR) in mice using an automated video tracking procedure, with the results summarized in Table 5. […] The phenyl Compound 44 was substantially more efficacious at inducing HTR than its pyridine counterpart Compound 29, in agreement with the generally lower maximal efficacy of the disclosed pyridine compounds for signaling through 5-HT2A receptors.
Animals. Adult male C57BL/6 mice aged 8-10 weeks (body weight 20-25 g) were used in these experiments. Animals were housed under controlled temperatures and 12-hour light/dark cycles (lights on between 07:00-19:00 h), with ad libitum food and water. The protocol was approved by the Institutional Animal Care and Use Committee at the study site. This study was carried out in strict accordance with the recommendations in the Guide for the Care and Use of Laboratory Animals of the National Institutes of Health. All efforts were made to minimize suffering.
Drugs and Drug Administration. […] was commercially obtained. Disclosed compounds were synthesized as described above. They were administered subcutaneously (SC) dissolved in saline (or saline acidified with 1-2 molar equivalents HCl to form the salt in situ for freebase compounds) at a volume of 10 mL/kg. Five doses were tested, with N=5-8 animals/group. Doses were calculated on the basis of the freebase, except for DOI, which was calculated based on the HCl salt.
Procedure. Mice were administered one dose of the drug and immediately placed into a small open field for behavioral observation. High-speed video of animals' behavior was captured continuously for 20 min. Video recordings were imported into an image processing software, which detects multiple points of interest on each animal's body, including the left and right ear. HTR events were defined as periodic deviations of ear locations from temporally averaged ear locations. Predefined thresholds for magnitude and frequency of location deviations were used to filter […] events from random head movements. The method was validated by comparing detected events with manual (human) observations and found to have an accuracy >95%. The total number of HTR events counted during the 20-min recording were determined for each animal at each dose.
Statistical Analysis. Analysis was performed using GraphPad Prism 9. Dose-response curves were fit via non-linear regression using the Gaussian 2020 function in Prism in order to determine the ED50 and Emax for each compound.

[3] = read-out: 5-HT2A EC50, Ca2+ flux, HEK293
[4] = read-out: 5-HT2B EC50, Ca2+ flux, HEK293

Chain of 5-HT2B receptor (P41595 whole entry, looked up): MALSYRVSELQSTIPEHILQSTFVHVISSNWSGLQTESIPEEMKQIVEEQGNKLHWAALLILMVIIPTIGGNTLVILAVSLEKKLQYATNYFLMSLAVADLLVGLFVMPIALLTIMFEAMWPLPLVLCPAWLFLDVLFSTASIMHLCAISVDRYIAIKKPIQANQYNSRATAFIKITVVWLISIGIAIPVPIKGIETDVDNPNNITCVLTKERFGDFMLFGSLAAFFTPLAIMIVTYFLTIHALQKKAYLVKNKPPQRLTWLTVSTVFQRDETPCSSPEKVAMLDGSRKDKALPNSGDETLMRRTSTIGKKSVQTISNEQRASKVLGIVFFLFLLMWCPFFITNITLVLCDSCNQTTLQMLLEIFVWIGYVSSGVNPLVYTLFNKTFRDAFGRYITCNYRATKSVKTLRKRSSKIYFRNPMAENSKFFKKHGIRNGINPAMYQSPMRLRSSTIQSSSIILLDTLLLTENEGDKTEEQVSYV
Chain of human 5-HT2C receptor (P28335 whole entry, looked up): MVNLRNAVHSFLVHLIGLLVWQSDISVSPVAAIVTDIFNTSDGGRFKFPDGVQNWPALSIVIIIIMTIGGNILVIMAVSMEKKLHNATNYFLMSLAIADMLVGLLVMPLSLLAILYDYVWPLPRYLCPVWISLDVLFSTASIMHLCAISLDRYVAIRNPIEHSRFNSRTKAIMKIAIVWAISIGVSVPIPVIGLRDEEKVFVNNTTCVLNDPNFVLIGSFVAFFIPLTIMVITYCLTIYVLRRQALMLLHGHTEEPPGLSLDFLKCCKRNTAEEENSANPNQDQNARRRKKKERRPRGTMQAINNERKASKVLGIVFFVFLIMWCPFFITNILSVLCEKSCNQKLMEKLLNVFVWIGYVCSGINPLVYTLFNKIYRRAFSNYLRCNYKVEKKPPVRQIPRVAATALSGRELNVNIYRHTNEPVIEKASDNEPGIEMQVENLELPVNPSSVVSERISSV

| Structure (SMILES) | EC50 (5-HT2A receptor [1]) [nM] | 5-HT2A % Act @ Max Conc. (5-HT2A receptor [1]; Ca2+ flux) | 5-HT2B % Act @ Max Conc. (5-HT2B receptor; Ca2+ flux) [%] | 5-HT1A % Act @ Max Conc. (5-HT1A receptor; Ca2+ flux, CHO cells) [%] | EC50 (5-HT2B receptor) [nM] | EC50 (5-HT1A receptor) [µM] | 5-HT2C % Act @ Max Conc. (human 5-HT2C receptor) [%] | further results |
| --- | --- | --- | --- | --- | --- | --- | --- | --- |
| CCC(N)Cc1nc(OC)c(C)cc1OC (stereo not shown) [Compound 2, 1-(3,6-dimethoxy-5-methylpyridin-2-yl)butan-2-amine] | 847 | 69.78% |  |  |  |  |  |  |
| COc1cc(CCN)c(OC)cc1Br [Compound 2C-B, 2C-B, reference compound] |  | 99.7% | 73.3 | 47.8 |  |  |  | EC50 (5-HT2A receptor [1]; [3]): 0.478 nM; EC50 (5-HT2B receptor; [4]): 20 nM; EC50 (5-HT1A receptor; read-out: 5-HT1A EC50, Ca2+ flux, CHO cells): 33.1 µM; Ki (5-HT2A receptor [2]): 8.25 nM |
| CCc1cc(OC)c(CCN)cc1OC [Compound 2C-E, 2C-E, reference compound] |  | 105% | 66.2 | 17.9 |  |  |  | EC50 (5-HT2A receptor [1]; [3]): 0.747 nM; EC50 (5-HT2B receptor; [4]): 29.7 nM; Ki (5-HT2A receptor [2]): 16.7 nM |
| CCC(N)Cc1nc(OC)c(Br)cc1OC (stereo not shown) [Compound 3, 1-(5-bromo-3,6-dimethoxypyridin-2-yl)butan-2-amine] | 136 | 70.17% |  |  |  |  |  |  |
| COc1cc(C)c(OC)nc1CC(C)N (stereo not shown) [Compound 5, 1-(3,6-dimethoxy-5-methylpyridin-2-yl)propan-2-amine] | 30 | 104.25% | 68.46 | 0.59 | 575 | > 100 |  |  |
| COc1cc(Br)c(OC)nc1CC(C)N (stereo not shown) [Compound 6, 1-(5-bromo-3,6-dimethoxypyridin-2-yl)propan-2-amine] | 2.13 | 95.6% | 70.54 | 1.66 | 170 | > 100 |  |  |
| COc1cc(C)c(OC)nc1CCN [Compound 8, 2-(3,6-dimethoxy-5-methylpyridin-2-yl)ethan-1-amine] | 65.8 | 85.81% | 36.99 | −0.62 | 1010 | > 100 |  |  |
| COc1cc(Br)c(OC)nc1CCN [Compound 9, 2-(5-bromo-3,6-dimethoxypyridin-2-yl)ethan-1-amine] | 9.81 | 96.84% | 38.01 | 2.11 | 764 | > 100 | 95.94 | EC50 (human 5-HT2C receptor): 30.7 nM; ED50 (C57BL/6 mice): 1.38 mg/kg; Emax (HTR counts/20 min) (C57BL/6 mice): 49.65 HTR counts/20 min; # HTR/20 min at Most Efficacious Dose (C57BL/6 mice): 45.75 HTR/20 min; Most Efficacious Dose; mg/kg (C57BL/6 mice): (3.2) mg/kg |
| CCCCCc1cc(OC)c(CC(N)CC)cc1OC (stereo not shown) [Compound 10, 1-(2,5-dimethoxy-4-pentylphenyl)butan-2-amine] |  | 72% and 71.5% | 0.211 | 33.1 |  |  | 115 |  |
| CCCCCc1nc(OC)c(CC(N)CC)cc1OC (stereo not shown) [Compound 11, 1-(2,5-dimethoxy-6-pentylpyridin-3-yl)butan-2-amine] | 356 | 62.2% | 6.92 | 197 |  | 19.2 |  |  |
| CCCCCc1nc(OC)c(CC(N)CC)nc1OC (stereo not shown) [Compound 12, 1-(3,6-dimethoxy-5-pentylpyrazin-2-yl)butan-2-amine] | > 3160 | 37.1% | 7.05 | 170 |  | 33.3 |  |  |
| CCc1cc(OC)c(CC(N)CC)nc1OC (stereo not shown) [Compound 21, 1-(5-ethyl-3,6-dimethoxypyridin-2-yl)butan-2-amine] | 170 | 73.61% |  |  |  |  |  |  |
| CCSc1cc(OC)c(CCN)nc1OC [Compound 22, 2-(5-(ethylthio)-3,6-dimethoxypyridin-2-yl)ethan-1-amine] | 4.09 | 94.73% | 22.75 | −1.51 | 215 | > 100 |  |  |
| CCSc1cc(OC)c(CC(C)N)nc1OC (stereo not shown) [Compound 23, 1-(5-(ethylthio)-3,6-dimethoxypyridin-2-yl)propan-2-amine] | 3.03 | 106.2% | 67.46 | 3.21 | 44.5 | > 100 |  |  |
| CCSc1cc(OC)c(CC(N)CC)nc1OC (stereo not shown) [Compound 24, 1-(5-(ethylthio)-3,6-dimethoxypyridin-2-yl)butan-2-amine] | 74.6 | 77.03% | 14.99 | 2.99 | > 10000 | > 100 |  |  |
| COc1cc(C2CC2)c(OC)nc1CCN [Compound 26, 2-(5-cyclopropyl-3,6-dimethoxypyridin-2-yl)ethan-1-amine] | 27 | 81.58% | 5.16 | 2.22 | > 10000 | > 100 |  |  |
| CCC(N)Cc1nc(OC)c(C2CC2)cc1OC (stereo not shown) [Compound 28, 1-(5-cyclopropyl-3,6-dimethoxypyridin-2-yl)butan-2-amine] | 161 | 71.49% |  |  |  |  |  |  |
| CCCCCCc1cc(OC)c(CCN)nc1OC [Compound 29, 2-(5-hexyl-3,6-dimethoxypyridin-2-yl)ethan-1-amine] | 34.6 | 69.91% | 7.78 |  | > 10000 | > 100 |  | ED50 (C57BL/6 mice): 7.46 mg/kg; Emax (HTR counts/20 min) (C57BL/6 mice): 22.11 HTR counts/20 min; # HTR/20 min at Most Efficacious Dose (C57BL/6 mice): 23 HTR/20 min; Most Efficacious Dose; mg/kg (C57BL/6 mice): (3.2) mg/kg |
| CCCc1cc(OC)c(CC(N)CC)nc1OC (stereo not shown) [Compound 37, 1-(3,6-dimethoxy-5-propylpyridin-2-yl)butan-2-amine] | 128 | 49.58% | 12.18 | 42.24 | > 10000 | > 100 |  |  |
| CCC(N)Cc1cc(OC)c(C)cc1OC (stereo not shown) [Compound 39, reference compound] |  | 112.8% | 39.2 | 8.7 |  |  | 99.3 |  |
| CCCc1cc(OC)c(CC(N)CC)cc1OC (stereo not shown) [Compound 40, reference compound] |  | 84.23% | −0.18 | 96.43 |  |  | 93.58 |  |
| CCCCCc1cc(OC)c(CC(C)N)cc1OC (stereo not shown) [Compound 41, reference compound] |  | 100.2% | 20.0 | 15.0 |  |  | 90.1 |  |
| CCCCCCc1cc(OC)c(CC(C)N)cc1OC (stereo not shown) [Compound 42, reference compound] |  | 119.7% | 39.8 | 30.4 |  |  | 99.8 |  |
| CCCCCc1cc(OC)c(CCN)cc1OC [Compound 43, reference compound] |  | 105.2% | 62.2 | 18.9 |  |  | 85.6 |  |
| CCCCCCc1cc(OC)c(CCN)cc1OC [Compound 44, reference compound] |  | 90.51% | 46.79 | 183.21 |  |  | 82.62 | ED50 (C57BL/6 mice): 1.36 mg/kg; Emax (HTR counts/20 min) (C57BL/6 mice): 57.87 HTR counts/20 min; # HTR/20 min at Most Efficacious Dose (C57BL/6 mice): 58.0 HTR/20 min; Most Efficacious Dose; mg/kg (C57BL/6 mice): (3.2) mg/kg |
| COc1cc(CCN)cc(OC)c1OC [Mescaline, reference compound] |  | 102% | 45.4 | −5.03 |  |  | 91.1 |  |
